# Data reported in US20220233523A1, “ANTIBIOTIC POTENTIATION FOR NONTUBERCULOUS MYCOBACTERIAL DISEASE” (priority 2019, published 2022).
# Several values for one entry are separate records, joined by “and”; a condition that tells them apart may be missing. Equal entries are not always repeated. Marks after values point to notes of the source that are not given here.
# How the values were obtained:
# [1] = system: MAH104 biofilms; type: cell-based, Mycobacterium avium subsp hominissuis 104 (MAH104); conditions: for Biofilm (metabolite used): Biolog PM1/PM2A substrates, 7 days at 37° C., end-point assay; for lower capacity of biofilms to use the substrate compared with planktonic cultures: O.D.590 nm, biofilm vs planktonic; for metabolized by biofilm cultures: Biolog PM1/PM2A plates
# Procedure: (§1) Metabolic phenotype study was performed with planktonic and biofilm cultures using the 96-well plates PM1 and PM2A (BIOLOG™, Hayward, Calif.). The assays with planktonic cells and biofilms were made at the same time. Each plate contains carbon substrates and one negative control well, in which the bacteria is tested without any substrate. The tests with planktonic and biofilm cultures were performed at the same time and the culture inoculum have the same number of passages. […] The experiments were made as an end-point assay.
# The cultures of biofilms were established for 7 days in regular polystyrene 96 well plates, not in PM Biolog plates, as described above with a minor difference. […] (total of 14 days of biofilm incubated at 37° C.). To obtain spectrophotometric measurements from biofilm cultures (O.D.590 nm), the plate was centrifuged for 20 minutes at 3500 rpm at 20° C., which reduce bacteria interference with the readings, and biofilm supernatant was transferred to a new 96 well plates for O.D.590 nm measurement.
# (§2) Experiments were performed three times as an end-point assay. If planktonic and/or biofilm cultures were able to metabolize a specific metabolite substrate, electrons from NADH reduce the Redox dye in an irreversible reaction that generates a purple color in the PM plate wells. The signal (+) and (−) indicates, respectively, whether a purple color was produced or not. Abiotic reductions of the Redox dye were assessed through adding bacteria-free GN/GP-IF-0a fluid in the wells. Negative control corresponds to the wells without any metabolic substrate.
# [2] = system: planktonic MAH104 cultures; type: cell-based, Mycobacterium avium subsp hominissuis 104 (MAH104); conditions: for Planktonic (metabolite used): Biolog PM1/PM2A plates, 7 days at 37° C., end-point assay
# Procedure: as §1
# To prepare the inoculum of planktonic cells for PM plates, MAH104 was cultivated in 7H9 medium with 10% OADC and 0.05% of tween20. After the cells reached a mid-logarithmic phase (O.D. at 595 nm=0.3 to 0.6), the cultures were harvested and washed three times with deionized water (centrifugation conditions; 3500 rpm for 20 minutes at 20° C.) and incubated in water for 24 hours at 25° C. as a starvation step. […] A volume of 100 μl of this final bacteria suspension was inoculated into the wells of PM1 and PM2A plates. These plates were incubated for 7 days at 37° C. and after the incubation the O.D. at 590 nm of the plates were measured.
# as §2
# [3] = system: MAH (strain 104) in established biofilms; test: Treatment of established MAH biofilms with antibiotics and metabolites (CFU); type: cell-based, Mycobacterium avium subsp hominissuis 104 (MAH104); conditions: for numbers of bacteria in biofilms / CFU/ml at 14 days: established biofilms; for numbers of bacteria in biofilms: antibiotic alone or co-treatment; for CFU/ml at 14 days: clarithromycin 16 μg/ml, amikacin 4 μg/ml, 0.05% propionic or butyric acid, 0.2% glycerol, none 4.2 +/− 0.5 × 10^8
# Procedure: To assess the antibiotic tolerance of MAH biofilms to amikacin (4 μg/ml) and clarithromycin (16 μg/ml), biofilms were formed for 14 days as described herein. […] As a negative control, biofilms were incubated only with non-supplemented 7H9 without any antibiotics. […] Subsequently, 100 μl of 0.02% of Triton X-100 (final concentration 0.01%) was added to the established biofilms to mix, dilute and perform CFU analysis with the entire population of biofilms (attached and unattached).
# Mycobacteria biofilms were first established and then treated or not treated with antibiotics. In parallel, biofilms were also co-treated with antibiotics and the targeted metabolites.
# [4] = system: intracellular MAH 104 in THP-1 macrophages; test: Treatment of MAH inside human THP-1 macrophages with antibiotics and metabolites (CFU); type: cell-based, Mycobacterium avium subsp hominissuis 104 (MAH104); conditions: for CFU/ml of macrophage lysate, 2 h: 2 h (baseline); for CFU/ml of macrophage lysate, 4 days: clarithromycin 16 μg/ml, amikacin 4 μg/ml, none 8.2 +/− 0.3 × 10^5
# Procedure: Human THP-1 cell line (TIB-202) (American Type Culture Collection, Manassas, Va.) was cultivated in RPMI-1640 medium with 10% of heat-inactivated fetal bovine serum (FBS, GEMINI B10-PRODUCTS, Sacramento, Calif.), at 37° C. with 5% CO2. The THP-1 cells were maintained in 75 cm^2 tissue culture flasks. The differentiation of THP-1 monocytes into macrophages with PMA (phorbol 12-myristate 13-acetate) (SIGMA ALDRICH) and intracellular antibiotic killing assays were performed as previously described (Rojony et al., Clinical proteomics 2019; 16:39). […] As a negative control, differentiated THP-1 cells were incubated without any antibiotics and with no metabolites. THP-1 cells were replenished with new media containing antibiotics, or no antibiotic, every other day. Cells were lysed at 2 h (baseline) and day 4 and subsequently the number of viable bacteria was determined by CFU counting on 7H10 agar plates.
# [5] = system: MAH 3393 biofilm; test: Amikacin with short-chain fatty acids on biofilm of lung isolate MAH 3393; type: cell-based; conditions: amikacin concentration: 4 mg/ml; untreated 1.0 +/− 0.8 × 10^8
# [6] = system: MAH 3388 biofilm; test: Amikacin with short-chain fatty acids on biofilm of lung isolate MAH 3388; type: cell-based; conditions: amikacin concentration: 4 mg/ml; untreated 9.4 +/− 0.2 × 10^7
# Procedure: As a negative control, biofilms were incubated only with non-supplemented 7H9 without any antibiotics. […] Subsequently, 100 μl of 0.02% of Triton X-100 (final concentration 0.01%) was added to the established biofilms to mix, dilute and perform CFU analysis with the entire population of biofilms (attached and unattached).
# Biofilms were established from an MAH strain isolated from the lungs of a patient (MAH 3388).
# [7] = cited from earlier work
# [8] = system: M. avium 104 static biofilms; test: Static biofilm formation in the presence of metabolites (crystal violet); type: cell-based, Mycobacterium avium subsp hominissuis 104 (MAH104); conditions: 1% and 0.5%, 7H9, 7 days at 37° C., crystal violet
# Procedure: Static biofilms were used in the present study as described previously (Rose S J, Bermudez L E., Infection and Immunity 2014; 82:405-12). Briefly, mycobacteria were taken from 7H10 agar plates and resuspended in deionized water (10^9 of colony forming units/ml; CFU/ml). The bacterial suspension was then washed 3 times with deionized water to remove any remaining of 7H10 media (3500 rpm for 20 minutes at 20° C.). After washing, the MAH104 were resuspended in 7H9 medium without any carbon sources (OADC, glycerol, tween 20 and tween 80) (non-supplemented 7H9) and suspensions were left alone to allow clumped bacteria to settle. The top half of the suspension was transferred to new tube and adjusted to 1×10^8 CFU/ml, using visual turbidity and optical density. Suspensions were inoculated in 96-well polystyrene plates (BD, Franklin Lakes, N.J.) (100 μl for each well [or 10^7 bacteria per well]) and biofilms were formed at 37° C. for 7 days or for 14 days when indicated. […] The raw O.D. at 570 nm values were discounted from O.D. 570 nm average of blank wells (wells with only 7H9 media).
# (§3) Assays with biofilms incubated with propionic acid, butyric acid, and glycerol were performed to test whether these metabolites affect the formation of biofilms. All the experiments were made in non-supplemented 7H9. The effect of these metabolites was evaluated during biofilm formation, in pre-established biofilms and in M. avium cells pre-attached to polystyrene. To evaluate the effect of targeted metabolites during biofilm formation, mycobacteria suspensions were prepared and inoculated in 96 wells polystyrene plates, as already described, and biofilms were formed in the presence or not of the short-chain fatty acids at different concentrations (1%, 0.5%, 0.1%, 0.05% and 0.01%). For glycerol, only 0.2% was used. The biofilms were formed in 7H9 media at 37° C. for 7 days. For pre-established biofilms, MAH104 was again inoculated in 96 wells plates and biofilms were formed as described herein. […] It was also evaluated whether these metabolites could promote the growth of MAH104 cells present in biofilms through the measurement of […] every 24 hours. Finally, mycobacteria suspension with low density made in 7H9 broth (containing 1×10^6 bacteria/ml) were seeded in 96 wells polystyrene plates and incubated for 7 days at 37° C. […] The growth of pre-attached bacterial cells was followed every 24 hours through O.D.595 nm. The biofilm formation was evaluated by crystal violet.
# The next step was to evaluate the capacity of tested substrates to promote the growth of mycobacteria cells that are present in biofilms. […] MAH 104 cells in the presence of non-supplemented 7H9 were used as a negative control. […]
# [9] = system: sessile MAH104 cells; test: Growth and biofilm formation of pre-attached (sessile) cells in nutrient-limited media; type: cell-based, Mycobacterium avium subsp hominissuis 104 (MAH104); conditions: 0.05% fatty acids in non-supplemented 7H9, 7 days; blank 0.091±0.007
# Procedure: as §3
# Low mycobacterial cells density (10^6/ml) resuspended in non-supplemented 7H9 media were inoculated in 96-well plates and incubated for 7 days at 37° C. to allow the bacteria to attach into polystyrene. The supernatant was discarded to remove planktonic cells and pre-attached bacterium was incubated for 7 days in nutrient-limited media (non-supplemented 7H9). […] The growth of sessile mycobacteria was followed by O.D.595 nm measurement and biofilm formation was determined through crystal violet (O.D.570 nm), since the multiplication of bacteria cells is linked with the formation of biofilms. No growth was observed when sessile MAH104 cells were cultivated in non-supplemented 7H9 broth. […] It is also important to highlight that the O.D.570 nm value for sessile MAH104 forms incubated with non-supplemented 7H9 (O.D.570 nm=0.11±0.039) had no significant difference in comparison with the blank (O.D.570 nm=0.091±0.007) (P=0.37), showing no biofilm formation. […] FIG. 3A-D.
molecule,measurement,setting,value
polysorbate 20 [Tween 20],Biofilm (metabolite used),[1],+
same,lower capacity of biofilms to use the substrate compared with planktonic cultures,[1],5.4 fold
same,Planktonic (metabolite used),[2],+
"NCC[C@H](O)C(=O)N[C@@H]1C[C@H](N)[C@@H](O[C@H]2O[C@H](CN)[C@@H](O)[C@H](O)[C@H]2O)[C@H](O)[C@H]1O[C@H]1O[C@H](CO)[C@@H](O)[C@H](N)[C@H]1O [Amikacin, reference compound]",numbers of bacteria in biofilms,[3],5.8±0.5×10^7
same,CFU/ml at 14 days,[3],5.8 +/− 0.5 × 10^7*(1) CFU/ml
same,"CFU/ml of macrophage lysate, 2 h",[4],4.5 +/− 0.4 × 10^5 CFU/ml
same,"CFU/ml of macrophage lysate, 4 days",[4],4.8±0.5×10^4 CFU/ml and 4.8 +/− 0.5 × 10^4* (1) CFU/ml
same,"CFU/mL, MAH 3393",[5],5.2 +/− 0.6 × 10^7*(1) CFU/mL
same,"CFU/mL, MAH 3388",[6],5.4 +/− 0.9 × 10^7*(1) CFU/mL
CC(=O)C(=O)O [Pyruvic acid],lower capacity of biofilms to use the substrate compared with planktonic cultures,[1],2.21 fold
CCC(=O)C(=O)O [α-Keto-Butyric acid],metabolized by biofilm cultures,[1],unable to metabolize
NC[C@H]1O[C@H](O[C@H]2[C@H](O)[C@@H](O[C@H]3O[C@H](CO)[C@@H](O)[C@H](N)[C@H]3O)[C@H](N)C[C@@H]2N)[C@H](N)C[C@@H]1O [tobramycin],concentration in expectorated sputum (Mean),[7]; 10 minutes after delivery of 300 mg by nebulizer,"1,237 μg/g of sputum"
same,concentration in the lung epithelial fluid (induced sputum),[7]; after 300 mg delivered by nebulizer,~128 µg/g
CCCCCC(=O)O [Caproic acid],killing capacity of clarithromycin,"[3]; established M. avium 104 biofilms, 72 hours, FIG. 4A-D",increase
same,CFU/ml at 14 days,[3],6.4 +/− 0.2 × 10^6*(1) CFU/ml
same,"CFU/ml of macrophage lysate, 2 h",[4],3.1 +/− 0.4 × 10^5 CFU/ml
same,"CFU/ml of macrophage lysate, 4 days",[4],5.3 +/− 0.4 × 10^5* (1) CFU/ml
same,lower capacity of biofilms to use the substrate compared with planktonic cultures,[1],4.27 fold
same,biofilm formation with 1% and 0.5% of fatty acid,[8],significant decrease
same,"O.D.570 nm of sessile MAH104 (crystal violet, biofilm formation)",[9],0.177±0.017
O=C(O)CCCCCCCCC(=O)O [Sebacic acid],Biofilm O.D.590 nm,"[1]; Biolog plate, end-point",0.411±0.059
same,planktonic O.D.590 nm,"[2]; Biolog plate, end-point",0.210±0.069
"CC[C@H]1OC(=O)[C@H](C)[C@@H](O[C@H]2C[C@@](C)(OC)[C@@H](O)[C@H](C)O2)[C@H](C)[C@@H](O[C@@H]2O[C@H](C)C[C@H](N(C)C)[C@H]2O)[C@](C)(OC)C[C@@H](C)C(=O)[C@H](C)[C@@H](O)[C@]1(C)O [Clarithromycin, reference compound]",numbers of bacteria in biofilms,[3],8.9±0.8×10^7
same,CFU/ml at 14 days,[3],8.9 +/− 0.8 × 10^7*(1) CFU/ml
same,"CFU/ml of macrophage lysate, 2 h",[4],4.5 +/− 0.4 × 10^5 CFU/ml
same,"CFU/ml of macrophage lysate, 4 days",[4],3.9±0.3×10^4 CFU/ml and 3.9 +/− 0.3 × 10^4* (1) CFU/ml
polysorbate 80 [Tween 80],Biofilm (metabolite used),[1],+
same,lower capacity of biofilms to use the substrate compared with planktonic cultures,[1],3.45 fold
same,Planktonic (metabolite used),[2],+
polysorbate 40 [Tween 40],Biofilm (metabolite used),[1],+
same,lower capacity of biofilms to use the substrate compared with planktonic cultures,[1],3.8 fold
same,Planktonic (metabolite used),[2],+
COC(=O)C(C)=O [Methyl Pyruvate],lower capacity of biofilms to use the substrate compared with planktonic cultures,[1],1.8 fold
CC(=O)CC(=O)O [Acetoacetic acid],metabolized by biofilm cultures,[1],unable to metabolize
CC(=O)O [Acetic Acid],lower capacity of biofilms to use the substrate compared with planktonic cultures,[1],2.55 fold
CCC(O)C(=O)O (stereo not drawn) [α-Hydroxy Butyric acid],metabolized by biofilm cultures,[1],unable to metabolize
